In PMC11373624, “Development and preclinical characterization of a novel radiotheranostic EphA2-targeting bicyclic peptide” (Theranostics, 2024):
Numbered stars: 1 amine (or outer) side, 2 acyl side, 3 side chain; on linkers, the order of the positions; unused ones are H or OH. Bridge positions count the residues as written; N and C are the ends. Square brackets hold non-standard residues; d marks the D form. Peptide text beside a SMILES is read from it. * marks the point of attachment. DOTA = O=C(O)CN1CCN(CC(=O)O)CCN(CC(=O)*)CCN(CC(=O)O)CC1; TATA = O=C(CC[*:1])N1CN(C(=O)CC[*:2])CN(C(=O)CC[*:3])C1; d(hArg) = N=C(N)NCCCC[C@@H](N)C(=O)O; dHyp = O=C(O)[C@H]1C[C@H](O)CN1; dCba = N[C@H](CC1CCC1)C(=O)O; βAla = NCCC(=O)O; Sar = CNCC(=O)O

Biological target: T1, Human EphA2 (Homo sapiens, UniProt P29317)
T1 construct: Human EphA2 (residues 27-529) was cloned into pEXPR-IBA44; made in house; host or cells: HEK293 f/s cells
Assay: SPR binding to human EphA2
Protocol: Human EphA2 (residues 27-529) was cloned into pEXPR-IBA44 between the 5' NheI and 3' BsaI sites to make constructs expressing a BM40 signal sequence and C-terminal 6xHIS tag. For the expression and purification of the protein, HEK293 f/s cells at 1 x 10^6/mL in freestyle media (Thermo Fisher) were transfected with 1 µg DNA per million cells by PEI either 2:1 or 3:1 PEI:DNA ratio. On day 2 valproic acid was added to a 2.2 mM concentration. The supernatant was harvested 5 days post transfection and loaded on a 1 ml Ni-NTA agarose resin (Thermo Fisher) (wash buffer: 20 mM HEPES pH 7.6, 0.5 M NaCl, 5 mM imidazole, 0.01% Tween-20 buffer; elution buffer: 20 mM HEPES pH 7.6, 0.5 M NaCl, 300 mM imidazole, 0.01% Tween-20). The protein was concentrated to a volume of 2 mL, loaded onto an S-200 Superdex column (GE Healthcare) and eluted with 20 mM HEPES pH 7.6, 150 mM NaCl, 0.01% Tween-20 at a flow rate of 1 mL/min. Fractions were collected and those containing human EphA2 protein were concentrated for further use.
SPR experiments were performed on a Biacore 8K+ (Cytiva Life Sciences, USA) instrument, with methods matched for both human and mouse EphA2 protein. Protein was captured on to a Cytiva NTA sensor chip (Cytiva Life Sciences), via the expressed His-tag; this was followed by primary amine coupling chemistry to covalently immobilize the protein to the chip at 25°C. Initially the surface was injected with 0.5 mM NiCl2 for 2 minutes, followed by activation of the carboxymethyl dextran surface for 7 minutes using an injection of a 1:1 ratio of 0.4 M 1-ethyl-3-(3-dimethylaminopropyl) carbodiimide hydrochloride (EDC)/0.1 M N-hydroxy succinimide (NHS) at a flow rate of 10 µL/min.
Human EphA2 protein was captured to the Ni-NTA surface to a level of 200-300 RU and Mouse EphA2 to 500-800 RU; the residual activated groups were then blocked with a 7 minute injection of 1 M ethanolamine (pH 8.5):HBS-N (1:1). Finally, the Ni-NTA surface was chelated with a 1-minute injection of 350 mM EDTA.
Peptide was prepared in PBS/0.05% Tween 20 with a final DMSO concentration of 0.5%. The top peptide concentration was 100 or 500 nM and 5 further 3-fold dilutions. The peptide was titrated over the chip using single cycle kinetics at 25°C at a flow rate of 75 µL/min with 60 second association and 4000 second dissociation. All data were double referenced for blank injections and reference surface using standard processing procedures. Data was characterized with a 1:1 kinetic binding model to determine kinetic rate constants ka (M^-1s^-1) and kd (s^-1) and equilibrium dissociation constant KD (nM). All data processing was performed using Cytiva Insight Evaluation (Cytiva Life Sciences, USA).

T1 sequence (P29317 27-529): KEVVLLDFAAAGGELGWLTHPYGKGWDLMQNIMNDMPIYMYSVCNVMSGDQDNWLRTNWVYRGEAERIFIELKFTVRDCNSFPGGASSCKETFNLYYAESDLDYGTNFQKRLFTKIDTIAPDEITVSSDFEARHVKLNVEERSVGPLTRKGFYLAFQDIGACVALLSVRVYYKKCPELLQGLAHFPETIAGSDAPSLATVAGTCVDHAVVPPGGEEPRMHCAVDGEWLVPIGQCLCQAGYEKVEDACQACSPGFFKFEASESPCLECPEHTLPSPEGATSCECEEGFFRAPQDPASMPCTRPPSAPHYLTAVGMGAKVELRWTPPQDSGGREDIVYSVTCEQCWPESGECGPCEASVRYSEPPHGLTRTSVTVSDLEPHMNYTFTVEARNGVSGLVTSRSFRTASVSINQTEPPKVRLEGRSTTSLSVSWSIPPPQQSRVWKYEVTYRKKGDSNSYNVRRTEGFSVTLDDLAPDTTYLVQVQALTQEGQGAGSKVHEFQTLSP

## CC(C)C[C@H]1NC(=O)[C@H]2CCCN2C(=O)[C@@H](CC(N)=O)NC(=O)[C@@H](C(C)C)NC(=O)[C@@H](CC2CCC2)NC(=O)[C@H]2C[C@H](O)CN2C(=O)[C@H](NC(=O)[C@@H](CC(=O)O)NC(=O)[C@@H](CCCCNC(=N)N)NC(=O)[C@@H](C)NC(=O)CN(C)C(=O)CN(C)C(=O)CN(C)C(=O)CN(C)C(=O)CN(C)C(=O)CN(C)C(=O)CN(C)C(=O)CN(C)C(=O)CN(C)C(=O)CN(C)C(=O)CCNC(=O)CN2CCN(CC(=O)O)CCN(CC(=O)O)CCN(CC(=O)O)CC2)CSCCC(=O)N2CN3CN(C2)C(=O)CCSC[C@@H](NC1=O)C(=O)N[C@H](CC(C)C)C(=O)N[C@H](Cc1c[nH]cn1)C(=O)N1CCC[C@@H]1C(=O)N[C@@H](CC(=O)O)C(=O)N[C@H](Cc1c[nH]c2ccccc12)C(=O)N[C@H](CCCCNC(=N)N)C(=O)N[C@@H](C(N)=O)CSCCC3=O [BCY26443, [DOTA]-[B-Ala]-[Sar10]-[dAla]-[dHArg]-[dAsp]-[dCys]-[dHyP]-[dCba]-[dVal]-[dAsn]-[dPro]-[dLeu]-[dCys]-[dLeu]-[dHis]-[dPro]-Asp-[dTrp]-[dHArg]-[dCys]-CONH2] ({DOTA-βAla}-[Sar][Sar][Sar][Sar][Sar][Sar][Sar][Sar][Sar][Sar][dA][d(hArg)][dD][dC][dHyp][dCba][dV][dN][dP][dL][dC][dL][dH][dP]D[dW][d(hArg)][dC]-NH2; linker 14-21-28 via TATA)
Human EphA2, read-out: no binding up to (peptide concentration)
  Kd: > 5 µM
In words
  binding to human EphA2 by SPR: no binding
